# According to paper PMC2827657 (Biochemistry, 2010):
# Assays:
# NSMOA [1] = biological target: NSMOA (Pseudomonas putida, UniProt O33471); assay: Linkage relationships of ligand binding and redox equilibria of NSMOA; design: species or system Pseudomonas putida S12
# apo NSMOA = apo NSMOA (Pseudomonas sp, UniProt O50214); assay: biochemical
# P. putida S12 = conditions: growth of P. putida S12; cited from earlier work
# NSMOA [2] = biological target: NSMOA (Pseudomonas sp, UniProt O50214); assay: Stopped-flow fluorescence kinetics of oxidized FAD binding to NSMOA; design: species or system Pseudomonas putida S12; conditions: 280 μM NSMOA mixed with 50 μM FAD, 25°C, four-exponential fit
# [3] = cited from earlier work
# [4] = calculated from linkage relationships
# NSMOA (Pseudomonas sp, UniProt O50214), sequence (O50214 whole entry): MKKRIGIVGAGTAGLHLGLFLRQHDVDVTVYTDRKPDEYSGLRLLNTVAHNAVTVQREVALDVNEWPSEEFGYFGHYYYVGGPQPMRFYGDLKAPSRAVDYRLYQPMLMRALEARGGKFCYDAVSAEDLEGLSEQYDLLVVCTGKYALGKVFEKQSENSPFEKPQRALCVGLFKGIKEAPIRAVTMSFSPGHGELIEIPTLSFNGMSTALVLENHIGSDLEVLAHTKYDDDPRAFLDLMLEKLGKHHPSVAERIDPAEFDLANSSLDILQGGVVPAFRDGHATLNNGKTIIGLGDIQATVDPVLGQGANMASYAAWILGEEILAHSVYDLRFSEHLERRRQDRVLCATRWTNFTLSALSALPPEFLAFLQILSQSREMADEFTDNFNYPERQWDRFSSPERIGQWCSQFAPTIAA
# apo NSMOA, sequence (O50214 whole entry): as above
compound,measurement,setting,value
"c1ccccc1 [benzene, reference compound]",positive cooperative interaction of benzene and reduced FAD binding (Kd1/Kd7),NSMOA [1]; benzene affinity for reduced-FAD complex of NSMOA relative to comparison state,~2 fold
same,decrease in cooperativity of substrate-analog and reduced-FAD binding equilibria,NSMOA [1]; relative to oxidized FAD cooperativity,30 fold
same,Kd,apo NSMOA,4.2 ± 0.37 mM
C=Cc1ccccc1 [styrene],styrene concentration at which growth is inhibited,P. putida S12,greater than 300 μM
"Cc1cc2nc3c(=O)[nH]c(=O)nc-3n(C[C@H](O)[C@H](O)[C@H](O)COP(=O)(O)OP(=O)(O)OC[C@H]3O[C@@H](n4cnc5c(N)ncnc54)[C@H](O)[C@@H]3O)c2cc1C [oxidized FAD, flavin adenine dinucleotide]",equilibrium midpoint potential of FAD bound to benzene-bound NSMOA,NSMOA [1]; [4],-142 mV
same,equilibrium midpoint potential of FAD bound to benzene-free NSMOA,NSMOA [1]; [4],-97 mV
same,rate constant k1,NSMOA [2],265 s⁻¹
same,rate constant k2,NSMOA [2],120 s⁻¹
same,rate constant k3,NSMOA [2],21 s⁻¹
same,rate constant k4,NSMOA [2],0.34 s⁻¹
same,"Em1, solution potential of free FAD",[3],-212 mV
